Molecules are shown by their SMILES. Substitutions are numbered along the chain they refer to.

Assay [1] addresses T1, AR, cytosol from LnCaP cells (Homo sapiens, UniProt P10275, T878A).
T1 construct: AR in LNCaP cytosol was used; endogenous in cells; host or cells: LNCaP cells (cytosol)
T1 sequence (P10275 1-920 T878A): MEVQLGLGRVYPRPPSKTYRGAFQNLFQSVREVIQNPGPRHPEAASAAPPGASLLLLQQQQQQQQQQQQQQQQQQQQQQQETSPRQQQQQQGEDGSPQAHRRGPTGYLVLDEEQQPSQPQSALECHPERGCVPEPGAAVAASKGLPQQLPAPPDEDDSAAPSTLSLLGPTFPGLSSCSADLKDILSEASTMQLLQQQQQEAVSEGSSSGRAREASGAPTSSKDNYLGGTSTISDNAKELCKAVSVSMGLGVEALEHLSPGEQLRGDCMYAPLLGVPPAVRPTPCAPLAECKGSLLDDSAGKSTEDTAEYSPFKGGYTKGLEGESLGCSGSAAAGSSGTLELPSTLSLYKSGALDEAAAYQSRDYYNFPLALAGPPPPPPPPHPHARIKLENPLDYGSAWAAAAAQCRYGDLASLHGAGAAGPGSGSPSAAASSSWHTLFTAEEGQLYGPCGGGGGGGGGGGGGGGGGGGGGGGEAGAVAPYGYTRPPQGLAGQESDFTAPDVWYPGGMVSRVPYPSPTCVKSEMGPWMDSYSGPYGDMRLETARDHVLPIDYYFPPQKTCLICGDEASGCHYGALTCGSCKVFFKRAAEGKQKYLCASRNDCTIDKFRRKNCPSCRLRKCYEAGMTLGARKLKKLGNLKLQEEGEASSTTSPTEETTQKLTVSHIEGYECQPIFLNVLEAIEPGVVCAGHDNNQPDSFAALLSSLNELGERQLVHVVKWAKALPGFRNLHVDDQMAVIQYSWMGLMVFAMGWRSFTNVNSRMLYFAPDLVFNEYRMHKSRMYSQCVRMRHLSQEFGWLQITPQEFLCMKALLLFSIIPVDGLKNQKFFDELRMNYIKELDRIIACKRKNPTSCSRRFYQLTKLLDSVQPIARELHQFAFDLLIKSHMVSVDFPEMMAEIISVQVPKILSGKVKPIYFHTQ
In words: AR binding assay, 3H-R1881 (Biological Example 2). Here is the method:
AR binding assay: To assess AR binding, test compound (top dose […], 4 fold serial dilution, 8 point dose response) and control (progesterone) were transferred to the assay plate. Cytosol from LnCaP cells was added to the plate, followed by addition of radiolabeled ^3H-R1881 at a final concentration of 1 nM. The plate was sealed, and the reaction was incubated at 300 rpm at 4° C. for 24 hrs. Radioligand absorption buffer (10 mM Tris-HCl, pH 7.4; 1.5 mM EDTA; 1 mM DTT; 0.25% charcoal; 0.0025% dextran) was then added to the plate, mixed, and incubated at 4° C. for 15 minutes. The plate was then centrifuged at 3000 rpm for 30 minutes at 4° C. The supernatant was transferred to the scint-tube and Tri-carb was used for scintillation counting. The data was analyzed using GraphPadPrism v5.0 and binding IC50 was determined as the concentration where 50% inhibition of radioligand binding was observed.

The target of assay [2] is T2, full-length androgen receptor (Homo sapiens, UniProt P10275).
T2 construct: HEK293 cells stably expressing the full-length androgen receptor; expressed in transfected cells
T2 sequence (P10275 1-920): T1 sequence (P10275 1-920 T878A) with A878T
In words: AR antagonism assay (HEK293, testosterone 1 nM, Steady-glo). Type of assay: cell-based. The procedure:
AR antagonism assay: To evaluate AR antagonist activity, test compound was added to the assay plate (top dose 10 μM, 3 fold serial dilution, 10 point dose response). HEK293 cells stably expressing the full-length androgen receptor were seeded at a density of 20000 cells/well in the assay plate. The assay plate was then incubated at room temperature for 10 minutes and at 37° C., 5% CO2 for 20 minutes. Testosterone was added to the assay plate at 1 nM final concentration and the assay plate was incubated at 37° C., 5% CO2 for 20 h. After the incubation period, Steady-glo was added to the assay plate and mixed at room temperature for 20 minutes on an orbital shaker, before reading out on the EnVision plate reader.

Assay [3] deals with LNCap cells. In words: Cell viability assay (CellTiterGlo, 6 days) LNCap. Type of assay: cell-based. The note with it: Homo sapiens, 144 h, Table 7. Here is the method: (§1) Cell viability assay: LNCap, 22Rv1, and T47D cells were seeded at a density of 1500-2000 cells/well in 96 well plates, and a ‘T0’ (timepoint 0) was included along with the assay plate. The plates were then incubated at 37° C., 5% CO2 in a cell culture incubator overnight. On the next day, the ‘T0’ plate was assayed using CellTiterGlo (Promega, Inc) according to the manufacturer's instructions. The appropriate compounds were diluted in DMSO and added to the assay plate (final DMSO concentration of 0.2%) on the next day. The assay plates were incubated for 6 days at 37° C., 5% CO2. After the incubation period, the plates were assayed using CellTiterGlo (Promega, Inc) according to the manufacturer's instructions and luminescence was read on the EnVision plate reader. Inhibition the tested compounds was determined by the following formula: Inhibition rate (%)=(1−(RLU compound−RLU day0)/(RLU control−RLU day0))*100%. GraphPadPrism was used to analyze the data and determine absolute IC50 values.
On the technique in general: Cellular ATP, detected with luciferase, serves as a proxy for viable cell number.

The test system of assay [4] is 22Rv1 cells. The experiment in a line: Cell viability assay (CellTiterGlo, 6 days) 22Rv1. Type of assay: cell-based. The settings on record: Homo sapiens, 22Rv1, 144 h; Table 7; cell viability, 6 days; read-out: 22RV1. The procedure:
as §1

Regarding `C[C@]12C=CC(=O)C[C@@H]1CC[C@@H]1[C@@H]2CC[C@]2(C)[C@@H](OCCCCCC(=O)N3CCN(C(=O)c4cc(Cc5n[nH]c(=O)c6ccccc56)ccc4F)CC3)CC[C@@H]12` [Compound 1410, 4-(3-(4-(6-((5S,8R,9S,10R,13S,14S,17S)-10,13-dimethyl-3-oxo-4,5,6,7,8,9, 10,11,12,13,14,15,16,17-tetradecahydro-3H-cyclopenta[a]phenanthren-17-yloxy)hexanoyl)piperazine-1-carbonyl)-4-fluorobenzyl)phthalazin-1(2H)-one], the IC50 in assay [1] was in the range of 10 to 100 nM; in assay [2], 100 to 1000 nM; in assay [3], 100 to 1000 nM; in assay [4], 100 to 1000 nM.

Values taken from patent publication US11952349B2, “Anti-cancer nuclear hormone receptor-targeting compounds” (Nuvation Bio Inc., priority 2019, dated 2024).
